Source: patent US5451600A, “Substituted tetrahydrobenzopyrrolylfuranoic acid derivatives as phospholipase A2 inhibitors” (Hoffmann-La Roche Inc., priority 1994, dated 1995)
Read-outs that look alike come from different tables or passages of the source.

Key:
[1] = target: T1, PLA2 activity in human synovial fluid (HSF) (Homo sapiens, UniProt P14555); experiment: Phospholipase A2 (PLA2) enzymatic assay - % Inhibition of HSF-PLA2; assay type: biochemical; conditions: for IC50: human synovial fluid PLA2, 30 min at 37° C., pH 7.3; for inhibition at 5 µM: read-out: % Inhib. of HSF-PLA2 at 5 μM
T1 construct: Synovial fluid was obtained from patients with rheumatoid arthritis; from tissue; host or cells: cell-depleted synovial fluid of patients with rheumatoid arthritis
T1 sequence (P14555 21-144): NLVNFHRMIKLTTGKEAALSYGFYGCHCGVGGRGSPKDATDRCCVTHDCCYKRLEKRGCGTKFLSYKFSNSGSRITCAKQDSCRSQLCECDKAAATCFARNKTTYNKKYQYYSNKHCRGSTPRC
Description: 1, Phospholipase A2 (PLA2) enzymatic assay - % Inhibition of HSF-PLA2
PLA2 assay procedure described by Hope et al., Inflammation 14:543-559 (1.990) was utilized to measure the inhibitory activity of the invention (inhibitor) against PLA2 activity in human synovial fluid (HSF). Synovial fluid was obtained from patients with rheumatoid arthritis. The assay procedure measured the release of [1-^14 C]oleic acid from the sn-2 position of phospholipids in autoclaved Escherichia coli previously grown in media containing [1-^14 C]oleic acid. The standard assay reaction conditions included 1×10^9 Escherichia coil (10,000 dpm ^14 C), 0.15% (v/v) cell-depleted HSF, (which was equivalent to 66 μg protein/mL) 2 mM CaCl2, 150 mM NaCl, 50 mM sodium (N-[2-hydroxyethyl] piperazine-N'-[2-ethanesulfonate]) (HEPES) buffer (pH 7.3), 1% dimethyl sulfoxide (DMSO) and various concentrations of inhibitor in a total volume of 0.5 ml. Inhibitors were dissolved in DMSO and added. The reaction was initiated by addition of HSF, incubated for 30 min at 37° C. and then stopped by addition of 2.5 ml of chloroform/methanol (1:1.5, v/v). The total lipids were extracted by the method of Bligh, E. G., and Dyer, W. J, Can. J. Biochem. Physiol. 37:911-917 (1959) by the further addition of 0.5 mL of chloroform and 1 mL of water with mixing. The lipid extract was redissolved in chloroform/methanol (9:1, v/v) containing 10 ug of carrier oleic acid. The oleic acid was separated from phospholipids by thin layer chromatography using gel-impregnated glass fiber sheets (ITLC type SG sheets). The sheets were preactivated by heating at 110° C. for 30 min. The lipid extract was applied to the sheets and chromatographed for 6 minutes, using hexane/acetic acid (100:1, v/v). The positions on the sheet containing oleic acid and phospholipids were visualized by exposure to iodine vapor and located by comparison to standards. The oleic acid and phospholipid zones were cut from the sheets, shaken individually with 2 ml of ethanol/water (80:20, v/v) and 15 ml of Aquasol, then counted for [^14 C] radioactivity (dpm). PLA2 activity, expressed as percent hydrolysis, was calculated from the formula: [formula] and was corrected for nonenzymatic hydrolysis of the substrate. Percent inhibition due to the presence of drug was calculated from the formula: [formula]
When various concentrations of a Compound of Formula I were tested, the percent inhibition at each concentration was plotted as log concentration (abscissa) versus percent inhibition (ordinate) and the IC50 was determined from this plot.

[2] = tested on: cellular PLA2; experiment: Inhibition of Cellular Phospholipase A2 (A23187-stimulated macrophages); assay type: cell-based; conditions: rat peritoneal macrophages, A-23187 stimulated
Description: II. Inhibition of Cellular Phospholipase A2. - % Inhibition of Cellular PLA2
Resident macrophages were obtained from rats by peritoneal lavage with phosphate buffered saline minus Ca2^++ and Mg2^++ (PBS). Cells were washed 3 times with PBS and resuspended in Dulbecco's Modified Eagle's Medium (GiBco) containing L-glutamine low D-glucose (1000 mg/L), and sodium pyruvate (110 mg/L), supplemented with 10% fetal calf serum. Cells were counted on a Coulter ZBI cell counter and then resuspended to a concentration of 6×10^6 cells/1.5 ml. The cell suspension (1.5 ml culture dishes (35 mm) and the cells were allowed to adhere to the dishes for 90 minutes at 37° C. Dishes were washed 3 times with PBS to remove non-adherent cells. [^14 C]arachidonic acid ([^14 C]-AA, approximately […], were added to the cells (1 uCi/dish) and allowed to incorporate for 120 minutes. Medium containing unincorporated [^14 C]-AA was removed and the cell layer was again washed 3 times with PBS. Inhibitors were dissolved in dimethylsulfoxide (DMSO) and added directly to the macrophages in Hank's Balanced Salt Solution (GiBco) phosphate-buffered, pH 7.4) to obtain the desired final concentration. Cells were incubated with drug or DMSO for 30 minutes at 37° C. and were then stimulated with calcium-ionophore A-23187 (0.75 uM) for 20 minutes. The extracellular medium was removed and the [^14 C] radioactivity released into this medium from AA metabolism was measured by liquid scintillation spectroscopy. The amounts of LTB4 and PGE2 were measured in the extracellular medium by radio immunoassay with specific antisera. The effects of inhibitor were measured as percent inhibition of A23187- stimulated AA metabolite release (^14 C release, PGE2 and LTB4 production) (control) which were calculated from the formula: [formula] IC50 's were calculated as described in the HSF-PLA2 assay.

[3] = tested on: carrageenan-induced paw edema in rats; experiment: Carrageenan-induced paw edema model of inflammation; assay type: in vivo; conditions: 2 hr, rat, read-out: Carrageenan ind. paw edema % Inhib. 2 hr; for inhibition in vivo at 100 mg/kg: 100 mg/Kg po; for inhibition in vivo at 3 mg/kg: 3 mg/Kg ip
[4] = tested on: PLA2-induced rat paw edema (PLA2 purified from Naja naja snake venom); experiment: PLA2-induced rat paw edema model of inflammation; assay type: in vivo
[5] = tested on: adjuvant-induced arthritis in male Lewis rats; experiment: Established adjuvant-induced arthritis test; assay type: in vivo, rat; conditions: day 28 minus day 21, vehicle value in parentheses
Description: IV. Adjuvant-induced Arthritis
Male Lewis rats (120-140 g) received 0.1 mg myeobacterium brityricum (0.5% ow/v) heavy mineral oil containing 0.2% digitonin administered in the base of the tail and the resulting arthritis was allowed to develop for 21 days (Coffey and Salvador, 1981). The combinded volumes of both hind paws were measured using a water plethysmograph by immersion of the paws to the level of the lateral malleolus. The animals were divided into drug-treatedand vehicle (control) groups (six rats per group) with approximately equal volumes of both hind paws. On day 21, body weights were recorded and the i.p. or p.o. vehicle and drug were then administered daily for seven days. On day 28, the final day of the experiment, heparinized (0.2 units/100 μl) blood was also collected for measurement of plasma fibrinogen concentrations (Goodwin, 1961). The changes in paw volume and body weight were calculated as paw volume or body weight at day 28 minus paw volume or body weight at day 21. Values are reported as means ± S.E. for n=6. Plasma fibrinogen concentration was quantitated according to Goodwin et al. (1961) and is expressed in mg/dl. Statistical differences between measurement parameters of the drug-treated and control groups were determined using Students's t-test.

SMILES	IC50 [1]	IC50 [2]	inhibition in vivo at 100 mg/kg [3]	inhibition at 5 µM [1]	% Inhib. of cellular PLA2 at 5 μM [2]	inhibition in vivo at 10 mg/kg ([3]; 10 mg/Kg ip)	PLA2-ind. paw edema % Inhib 2 hr ([4]; 30 mg/Kg ip)	PLA2-ind. paw edema % Inhib 2 hr ([4]; 100 mg/Kg po)	Change of body wt. (vehicle) ([5]; 30 mg/Kg po daily seven days)	Change of paw volume (vehicle) ([5]; 30 mg/Kg po daily seven days)	inhibition in vivo at 3 mg/kg [3]	further results
CCCCCCCCn1c2c(c3cc(/C=C/c4ccc(C(=O)O)o4)ccc31)CCCC2 [Example 43, (E)-5-[2-(1,2,3,4-tetrahydro-9-octyl-9H-dibenzo[b,d]pyrrol-6-yl)ethenyl]-2-furancarboxylic acid]	6 µM	0.5 µM	29%									inhibition at 10 µM ([1]; 10 μM (footnote a), read-out: % Inhib. of HSF-PLA2 (a: % Inhibition at 10 μM)): 90%; inhibition in vivo at 50 mg/kg ([3]; 50 mg/Kg ip): 40%; PLA2-ind. paw edema % Inhib 2 hr ([4]; 50 mg/Kg ip): 60%; Change of body wt. (vehicle) ([5]; 10 mg/Kg ip daily seven days): 12 g; Change of paw volume (vehicle) ([5]; 10 mg/Kg ip daily seven days): -0.18 mL; Change of body wt. (vehicle) ([5]; 100 mg/Kg po daily seven days): 12 g; Change of paw volume (vehicle) ([5]; 100 mg/Kg po daily seven days): -0.29 mL
CCCCCCCCn1c2c(c3cc(/C=C/c4ccc(C(=O)O)o4)ccc31)CCCC2(C)C [Example 44, (E)-5-[2-(1,2,3,4-tetrahydro-1,1-dimethyl-9-octyl-9H-dibenzo[b,d]pyrrol-6-yl)ethenyl]-2-furancarboxylic acid]	2.5 µM	4 µM	36%	71%	62%	57%	71%	27%	5 g	0.68 mL		
CCCCCCCCn1c2c(c3cc(/C=C\c4ccc(C(=O)O)o4)ccc31)CCCC2(C)C [Example 52, (Z)-5-[2-(1,2,3,4-tetrahydro-1,1-dimethyl-9-octyl-9H-dibenzo[b,d]-pyrrol-6-yl)ethenyl]-2-furancarboxylic acid]				73%	66%	50%			13 g	0.66 mL		
CCCCCCCCn1c2c(c3cc(Oc4ccc(C(=O)O)o4)ccc31)CCCC2 [Example 132, 5-[(1,2,3,4-tetrahydro-9-octyl-9H-dibenzo[b,d]pyrrol-6-yl)oxy]-2-furancarboxylic acid]	4 µM	1 µM	65%	79%	97%			34%			45%	Change of body wt. (vehicle) ([5]; 10 mg/Kg po daily seven days): 13 g; Change of paw volume (vehicle) ([5]; 10 mg/Kg po daily seven days): 0.48 mL
CCCCCCCCn1c2c(c3cc(Cc4ccc(C(=O)O)o4)ccc31)CCCC2 [Example 160, 5-[(1,2,3,4-tetrahydro-9-octyl-9H-dibenzo[b,d]pyrrol-6-yl)methyl]-2-furancarboxylic acid]				49%	94%		49%		4 g	0.47 mL	46%	inhibition in vivo at 10 mg/kg ([3]; 10 mg/Kg po): 50%
